Compared with `CCOC(=O)C1=C(COCCN(C)S(C)(=O)=O)NC(C)=C(C(=O)OC)C1c1ccccc1Cl` (stereo unspecified), `CCOC(=O)CCCCCOc1c(/C=C/C(=O)CCc2ccccc2)occc1=O` is lower in melting point: 93 to 95 °C for the first, 38.5 to 40 °C for the second.

Compared with `O=Cc1cn(Cc2ccccc2)nc1OCc1ccccc1`, `O=C(OCCOCc1ccccc1)n1c(-c2cscn2)nc2ccccc21` is higher in melting point: 85 to 86 °C for the first, 93 to 95 °C for the second.

Going from `CN1CCCCC1CCc1ccccc1NC(=O)c1ccc(C(F)(F)F)cc1` (stereo unspecified) to `O=C(Nc1ccc(C(F)(F)F)cc1)O[C@H]1COC(c2ccccc2)=N[C@@H]1c1ccccc1` (racemic), the melting point falls from 150 °C to 140 °C.

First: CCN1CCC2(c3cccc(O)c3)Cc3[nH]c(C(=O)N(CC)CC)c(C)c3CC2C1 (stereo unspecified)
Second: CCN1C[C@@H](O)[C@H](N(C)C(=O)c2ccc(Cl)cc2)C1 (relative stereo)
The melting point of the first is higher: 221 to 223 °C for the first, 91 to 93 °C for the second.

First: CC=CC(=O)Oc1ccc(Nc2ccccc2)cc1
Second: COC(=O)c1cc(C(=O)c2ccccc2)ccc1OC
The melting point of the first is lower: 73 to 76 °C for the first, 88 °C for the second.

First: Cc1ccc(Oc2ccccc2NN)c(O)c1
Second: O=C(O)COc1cccc2c(CNS(=O)(=O)Cc3ccccc3)coc12
The melting point of the first is lower: 108 to 110 °C for the first, 191 to 192 °C for the second.

First: COc1ccc(Nc2cc(C)nc(SCC(N)=NO)n2)cc1
Second: COc1ccc(Nc2nc(NC3CCCCCC3)nc(Oc3ccc(I)cc3)n2)cc1Cl
The melting point of the first is higher: 189 to 191 °C for the first, 80 to 82 °C for the second.

Compared with `Cc1ccc(N2C(=O)CN3C(=O)CC[C@@H]32)cc1`, `CC1CC(=O)NN=C1c1ccc(N2CCC(C(=O)O)CC2)c([N+](=O)[O-])c1` (stereo unspecified) is higher in melting point: 149 to 150 °C for the first, 214 °C for the second.

First: CC1(C)C=Cc2c(ccc3c2C=CC(=O)C3=O)O1
Second: COc1c(Cl)cc(-c2ccc(=O)[nH]n2)cc1Cl
The melting point of the first is lower: 189 to 193 °C for the first, 245 to 251 °C for the second.

First: CC(=O)NC1Cc2ccc(Cl)cc2C1 (stereo unspecified)
Second: COC(=O)CCC#Cc1cc(Cl)ccc1NS(=O)(=O)c1ccc(C(C)=O)cc1
The melting point of the first is higher: 117 to 119 °C for the first, 88 °C for the second.

First: O=C1Cc2cc(C(F)(F)F)ccc2N1
Second: NS(=O)(=O)c1ccc(-n2nc(C(F)(F)F)cc2-c2ccc(-c3cscn3)c(C(F)(F)F)c2)cn1
The melting point of the first is higher: 188 to 190 °C for the first, 114 °C for the second.

First: Nc1cc(C(=O)c2ccccc2)ccc1N1CCCCC1
Second: N#Cc1cc(N)ccc1N1CCOCC1
The melting point of the first is lower: 99 to 100 °C for the first, 147 to 148 °C for the second.

Compared with `C(=Nc1ccccn1)N(c1ccccc1)c1ccccc1`, `Nc1ncnc2c1c(-c1ccc(Oc3ccccc3)cc1)cn2CCO` is higher in melting point: 92 to 94 °C for the first, 144 to 145 °C for the second.

Compared with `O=C(O)C(=O)NCCC(F)=C(F)F`, `C/C=C/C/C=C/CCCCCCCC(=O)Nc1nc(CC(=O)O)cs1` is higher in melting point: 95 to 100 °C for the first, 101 to 102 °C for the second.

Compared with `Cc1cccc(C)c1NC(=O)C=CC(=O)c1ccc(Cl)c(Cl)c1`, `COCCCNC(=O)c1ccc(-c2cc(-c3c(-c4cccc(C)n4)nc4ccccn34)ccn2)cc1` is lower in melting point: 213 to 215 °C for the first, 165 °C for the second.

First: N#CNC(=Nc1ccncc1)NCCSc1ccccc1
Second: Cc1c(-c2ccccc2)sc2nc(NCCO)[nH]c(=O)c12
The melting point of the first is lower: 161 to 163 °C for the first, 227 to 229 °C for the second.

First: CC12CCC(O)CC1=CCC1C2CCC2(C)C(c3ccco3)=CCC12 (stereo unspecified)
Second: CC[C@@]12C[C@@](C)(O)[C@](O)(c3ccccc3)C[C@H]1CCc1cc(OCC(=O)NCCCC#N)ccc12
The melting point of the first is lower: 105 to 116 °C for the first, 185 to 186 °C for the second.

Compared with `CC(CNC(=O)N(CCC(F)(F)F)CCC12CC3CC(CC(C3)C1)C2)Cc1ccncc1` (stereo unspecified), `CCCCSc1nc(N)nc2c1ncn2C1C=CC(CO)C1` (stereo unspecified) is higher in melting point: 81.1 to 84.1 °C for the first, 120 to 123 °C for the second.

First: c1ccc2c(c1)nc1n2CCCSC1
Second: O=c1[nH]c2ccccc2n1CCCN1CCC(O)(c2ccc(F)cc2)CC1
The melting point of the first is higher: 155 to 157 °C for the first, 135 °C for the second.

Compared with `CCCCCCC1c2cc(CBr)ccc2-c2ccc(CBr)cc21`, `CCc1ccc(S(=O)(=O)c2c(N)c3nncn3c3nc4ccccc4nc23)cc1` is higher in melting point: 143 to 145 °C for the first, > 300 °C for the second.

With `CN1CCN(c2cc(Cl)c3c(c2)N(Cc2ccccc2)C(=O)N(Cc2cccc(O)c2)S3(=O)=O)CC1` the melting point was 170 to 172 °C.
